Experimental data from ChEMBL document CHEMBL1152720, “Discovery and SAR of para-alkylthiophenoxyacetic acids as potent and selective PPARdelta agonists” (Bioorg Med Chem Lett, 2009).

How the values were obtained:
[1] = target: T1, Peroxisome proliferator-activated receptor delta (Homo sapiens, UniProt Q03181); assay: Agonist activity at human PPARdelta; format: functional
T1 sequence (Q03181 whole entry): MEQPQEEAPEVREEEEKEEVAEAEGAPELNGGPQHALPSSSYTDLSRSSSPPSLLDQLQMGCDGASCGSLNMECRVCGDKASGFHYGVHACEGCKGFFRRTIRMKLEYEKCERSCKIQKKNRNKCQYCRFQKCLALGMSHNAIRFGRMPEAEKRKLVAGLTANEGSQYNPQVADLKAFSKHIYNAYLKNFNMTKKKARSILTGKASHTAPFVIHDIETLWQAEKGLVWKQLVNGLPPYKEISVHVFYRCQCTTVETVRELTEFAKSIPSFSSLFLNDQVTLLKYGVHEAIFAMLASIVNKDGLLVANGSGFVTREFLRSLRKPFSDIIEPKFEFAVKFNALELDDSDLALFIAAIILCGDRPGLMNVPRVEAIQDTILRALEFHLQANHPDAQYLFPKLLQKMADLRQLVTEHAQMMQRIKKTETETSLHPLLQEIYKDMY

[2] = target: T2, Peroxisome proliferator-activated receptor alpha (Homo sapiens, UniProt Q07869); assay: Activity at PPARalpha
T2 sequence (Q07869 whole entry): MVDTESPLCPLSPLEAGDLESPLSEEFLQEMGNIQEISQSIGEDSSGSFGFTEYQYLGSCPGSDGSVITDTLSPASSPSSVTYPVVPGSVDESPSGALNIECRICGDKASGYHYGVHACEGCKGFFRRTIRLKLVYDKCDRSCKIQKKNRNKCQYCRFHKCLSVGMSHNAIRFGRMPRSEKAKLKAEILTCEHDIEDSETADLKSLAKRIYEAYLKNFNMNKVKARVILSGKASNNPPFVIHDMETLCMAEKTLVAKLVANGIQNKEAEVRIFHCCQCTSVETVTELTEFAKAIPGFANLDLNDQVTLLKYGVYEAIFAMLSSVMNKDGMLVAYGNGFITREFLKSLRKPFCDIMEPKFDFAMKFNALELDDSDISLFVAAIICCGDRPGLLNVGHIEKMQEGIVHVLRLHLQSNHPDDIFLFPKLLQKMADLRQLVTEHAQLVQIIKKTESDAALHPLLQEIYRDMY

[3] = target: T3, Peroxisome proliferator-activated receptor gamma (Homo sapiens, UniProt P37231); assay: Activity at PPARgamma
T3 sequence (P37231 whole entry): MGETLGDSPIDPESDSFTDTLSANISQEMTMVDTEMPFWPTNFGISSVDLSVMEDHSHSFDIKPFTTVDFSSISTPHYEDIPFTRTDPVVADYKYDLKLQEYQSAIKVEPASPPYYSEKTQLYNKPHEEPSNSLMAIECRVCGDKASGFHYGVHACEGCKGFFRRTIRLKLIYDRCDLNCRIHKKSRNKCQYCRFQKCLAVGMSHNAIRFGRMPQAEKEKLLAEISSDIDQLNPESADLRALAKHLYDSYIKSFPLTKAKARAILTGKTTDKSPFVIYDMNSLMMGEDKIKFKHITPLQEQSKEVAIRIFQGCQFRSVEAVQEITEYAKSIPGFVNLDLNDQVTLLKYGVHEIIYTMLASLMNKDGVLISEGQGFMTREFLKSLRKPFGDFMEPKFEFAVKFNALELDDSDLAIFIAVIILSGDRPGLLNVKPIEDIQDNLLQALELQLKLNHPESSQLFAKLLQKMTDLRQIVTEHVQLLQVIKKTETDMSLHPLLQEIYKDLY

Row | SMILES | EC50 [1] | EC50 [2] | EC50 [3]
1 | CCCC(CCC)(COc1ccc(C(F)(F)F)cc1)CSc1ccc(OCC(=O)O)c(C)c1 | 8.6 nM |  | 
2 | C=C(CNc1ccc(C(F)(F)F)cc1)CSc1ccc(OCC(=O)O)c(C)c1 | > 500 nM | > 1000 nM | > 1000 nM
3 | C=C(COc1ccccc1)CSc1ccc(OCC(=O)O)c(C)c1 |  | > 1000 nM | > 1000 nM
4 | C=C(COc1ccc(Cl)c(Cl)c1)CSc1ccc(OCC(=O)O)c(C)c1 | 49.8 nM | > 1000 nM | > 1000 nM
5 | C=C(COc1ccc(OC)cc1)CSc1ccc(OCC(=O)O)c(C)c1 |  | > 1000 nM | > 1000 nM
6 | C=C(COc1ccc(N(C)C)cc1)CSc1ccc(OCC(=O)O)c(C)c1 |  | > 1000 nM | > 1000 nM
7 | C=C(CCc1ccc(C(F)(F)F)cc1)CSc1ccc(OCC(=O)O)c(C)c1 |  | > 1000 nM | > 1000 nM
8 | C=C(COc1ccc(C(F)(F)F)cc1)CSc1ccc(OCC(=O)O)c(Cl)c1 | 46.7 nM | > 1000 nM | > 1000 nM
9 | C=C(COc1ccc(C(F)(F)F)cc1)CSc1ccc(OCC(=O)O)c(C(F)(F)F)c1 | > 1000 nM | > 1000 nM | > 1000 nM
10 | C=C(COc1ccc(Cl)cc1Cl)CSc1ccc(OCC(=O)O)c(C)c1 |  | > 1000 nM | > 1000 nM
11 | C=C(COc1ccc(C(F)(F)F)cc1)CSc1ccc(OCC(=O)O)c(C)c1 |  | > 1000 nM | > 1000 nM
12 | Cc1cc(SCC(COc2ccc(C(F)(F)F)cc2)=C(F)F)ccc1OCC(=O)O | 69.6 nM |  | 
13 | C=C(COc1ccc(OC(F)(F)F)cc1)CSc1ccc(OCC(=O)O)c(C)c1 | 28.4 nM | > 1000 nM | > 1000 nM
14 | C=C(COc1ccc(Cl)c(C(F)(F)F)c1)CSc1ccc(OCC(=O)O)c(C)c1 | > 500 nM | > 1000 nM | > 1000 nM
15 | C=C(COc1ccc(C(F)(F)F)cc1)CSc1ccc(OCC(=O)O)c(OC)c1 | > 1000 nM | > 1000 nM | > 1000 nM
16 | C=C(CSc1ccc(C(F)(F)F)cc1)CSc1ccc(OCC(=O)O)c(C)c1 |  | > 1000 nM | > 1000 nM
17 | C=C(COc1ccc(Cl)cc1)CSc1ccc(OCC(=O)O)c(C)c1 | 65.5 nM | > 1000 nM | > 1000 nM
18 | C=C(COc1ccc(C(F)(F)F)cc1)COc1ccc(OCC(=O)O)c(C)c1 |  | > 1000 nM | > 1000 nM
19 | C=C(COc1ccc(C(F)(F)F)cc1)CSc1ccc(OCC(=O)O)cc1Cl | > 500 nM | > 1000 nM | > 1000 nM
20 | Cc1cc(SC/C(=C/C#N)COc2ccc(C(F)(F)F)cc2)ccc1OCC(=O)O | 35.4 nM |  | 
